Tests used:
Adenosine receptor A2a [1] = target: T1, Adenosine receptor A2a (Homo sapiens, UniProt P29274); experiment: biochemical
Adenosine receptor A2a [2] = target: T1, Adenosine receptor A2a
Description: Agonist activity at adenosine A2A receptor in human neutrophils assessed as inhibition of fMLP-induced reactive oxygen species release by chemiluminescence assay

Adenosine receptor A1 = target: T2, Adenosine receptor A1 (Homo sapiens, UniProt P30542); experiment: Agonist activity at human adenosine A1 receptor expressed in CHO cells by GTPPgammaS binding assay; format: cell-based
T2 sequence (P30542 whole entry): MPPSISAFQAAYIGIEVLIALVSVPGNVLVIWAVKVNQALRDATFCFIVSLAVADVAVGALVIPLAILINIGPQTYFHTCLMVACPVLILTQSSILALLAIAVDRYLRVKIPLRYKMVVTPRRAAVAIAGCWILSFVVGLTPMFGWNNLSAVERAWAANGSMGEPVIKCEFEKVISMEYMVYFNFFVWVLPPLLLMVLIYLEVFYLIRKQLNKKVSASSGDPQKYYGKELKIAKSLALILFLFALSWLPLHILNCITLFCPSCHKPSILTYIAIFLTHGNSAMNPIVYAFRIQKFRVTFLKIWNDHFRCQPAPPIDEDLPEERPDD

Adenosine receptor A2b = target: T3, Adenosine receptor A2b (Homo sapiens, UniProt P29275)
T3 sequence (P29275 whole entry): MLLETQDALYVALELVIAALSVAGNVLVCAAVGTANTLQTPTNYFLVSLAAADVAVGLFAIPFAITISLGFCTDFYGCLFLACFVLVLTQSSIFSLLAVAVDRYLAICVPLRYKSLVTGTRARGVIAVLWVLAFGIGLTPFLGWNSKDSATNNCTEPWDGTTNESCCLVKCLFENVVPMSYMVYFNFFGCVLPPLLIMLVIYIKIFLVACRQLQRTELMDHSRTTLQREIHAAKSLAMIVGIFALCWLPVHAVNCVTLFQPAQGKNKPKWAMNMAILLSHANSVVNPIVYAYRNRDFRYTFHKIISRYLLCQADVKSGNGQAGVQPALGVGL
Description: Agonist activity at human adenosine A2B receptor expressed in CHO cells assessed as effect on cAMP production by luciferase reporter gene assay

Adenosine receptor A3 = target: T4, Adenosine receptor A3 (Homo sapiens, UniProt P0DMS8); experiment: Agonist activity at human adenosine A3 receptor expressed in CHO cells by GTPPgammaS binding assay; format: cell-based
T4 sequence (P0DMS8 whole entry): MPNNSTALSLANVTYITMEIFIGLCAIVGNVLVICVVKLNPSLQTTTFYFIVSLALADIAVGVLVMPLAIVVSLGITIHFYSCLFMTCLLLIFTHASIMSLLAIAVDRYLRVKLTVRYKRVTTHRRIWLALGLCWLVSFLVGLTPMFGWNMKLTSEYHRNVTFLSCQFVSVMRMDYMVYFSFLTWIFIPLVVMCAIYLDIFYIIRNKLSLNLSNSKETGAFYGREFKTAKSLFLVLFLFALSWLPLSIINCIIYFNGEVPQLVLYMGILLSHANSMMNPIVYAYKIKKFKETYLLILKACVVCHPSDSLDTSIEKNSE

PBMC [3] = experiment: Antiinflammatory activity in human PBMC assessed as inhibition of LPS-induced TNFalpha production after 20 hrs by ELISA; format: functional, cell-based
[4] = target: T5, Adenosine receptor A3 (Homo sapiens) (UniProt P0DMS8); experiment: Antagonist activity at human adenosine A3 receptor expressed in CHO cells assessed as I-AB-MECA-induced GTPPgammaS binding response; format: functional, cell-based; design: concentration or dose not given beside the values
T5 sequence (whole entry): T4 sequence (P0DMS8 whole entry)

PBMC [5] = experiment: Antiinflammatory activity in rat PBMC assessed as inhibition of LPS-induced TNFalpha production after 20 hrs by ELISA
[6] = target: T5, Adenosine receptor A3 (Homo sapiens); experiment: Partial agonist activity at human adenosine A3 receptor expressed in CHO cells assessed as I-AB-MECA-induced GTPPgammaS binding response; format: cell-based

T1 sequence (P29274 whole entry): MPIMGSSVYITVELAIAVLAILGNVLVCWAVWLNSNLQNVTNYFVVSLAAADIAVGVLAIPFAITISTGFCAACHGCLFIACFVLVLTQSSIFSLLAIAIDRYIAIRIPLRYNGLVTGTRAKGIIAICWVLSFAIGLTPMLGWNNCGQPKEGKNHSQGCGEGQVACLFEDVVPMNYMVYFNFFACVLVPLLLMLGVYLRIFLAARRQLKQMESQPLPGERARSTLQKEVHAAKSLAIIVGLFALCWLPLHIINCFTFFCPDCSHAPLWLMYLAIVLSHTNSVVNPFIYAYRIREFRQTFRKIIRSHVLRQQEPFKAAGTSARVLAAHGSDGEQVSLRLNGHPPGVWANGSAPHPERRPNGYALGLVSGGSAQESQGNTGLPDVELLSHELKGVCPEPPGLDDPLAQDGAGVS

| SMILES | Ki (Adenosine receptor A2a [1]) | IC50 (Adenosine receptor A2a [2]) | EC50 (Adenosine receptor A1) | EC50 (Adenosine receptor A2b) | EC50 (Adenosine receptor A3) | IC50 (PBMC [3]) | Activity [4] | IC50 (PBMC [5]) | Activity [6] |
| --- | --- | --- | --- | --- | --- | --- | --- | --- | --- |
| CCCC(=O)N[C@H]1C[C@@H](n2cnc3c(NCC(c4ccccc4)c4ccccc4)nc(NCCc4cn(C(C)C)cn4)nc32)[C@H](O)[C@@H]1O | 39 nM | 160 nM | – | – | – | – | – | – | – |
| CCC(CC)CNc1nc(NCCc2cn(CC)cn2)nc2c1ncn2[C@@H]1C[C@H](n2cc(CO)cn2)[C@@H](O)[C@H]1O | 5.4 nM | 5.3 nM | 4100 nM | > 10000 nM | 789 nM | 21 nM | > 50% | 3590 nM | – |
| CCc1cnn([C@H]2C[C@@H](n3cnc4c(NCC(c5ccccc5)c5ccccc5)nc(NCCc5cn(CC)cn5)nc43)[C@H](O)[C@@H]2O)c1 | 146 nM | – | – | – | – | – | – | – | – |
| CCn1nnc([C@H]2O[C@@H](n3cnc4c(N)nc(N[C@H](CO)Cc5ccccc5)nc43)[C@H](O)[C@@H]2O)n1 [GW-328267] | – | 0.4 nM | 882 nM | – | – | 1.3 nM | > 50% | 2.9 nM | – |
| CCC(=O)N[C@H]1C[C@@H](n2cnc3c(NCC(c4ccccc4)c4ccccc4)nc(NCCc4cn(CC(=O)O)cn4)nc32)[C@H](O)[C@@H]1O | 97 nM | – | – | – | – | – | – | – | – |
| Cc1cnn([C@H]2C[C@@H](n3cnc4c(N)nc(N[C@H](CO)Cc5ccccc5)nc43)[C@H](O)[C@@H]2O)c1 | 229 nM | 56 nM | > 10000 nM | > 10000 nM | 449 nM | – | > 50% | – | – |
| CCC(=O)N[C@H]1C[C@@H](n2cnc3c(NC(CC)CC)nc(NCCc4cn(C(C)C)cn4)nc32)[C@H](O)[C@@H]1O | 8 nM | 8.3 nM | > 10000 nM | – | 2520 nM | 5.9 nM | – | 458 nM | – |
| CCNC(=O)[C@H]1O[C@@H](n2cnc3c(N)nc(NCCc4ccc(CCC(=O)O)cc4)nc32)[C@H](O)[C@@H]1O [CGS-21680] | – | – | – | – | – | 58 nM | – | 83 nM | – |
| Nc1nc(N[C@H](CO)Cc2ccccc2)nc2c1ncn2[C@@H]1C[C@H](n2cccn2)[C@@H](O)[C@H]1O | 702 nM | – | – | – | – | – | – | – | – |
| Nc1nc(N[C@H](CO)Cc2ccccc2)nc2c1ncn2[C@@H]1C[C@H](n2ncc3ccccc32)[C@@H](O)[C@H]1O | 5410 nM | – | – | – | – | – | – | – | – |
| CCc1cnn([C@H]2C[C@@H](n3cnc4c(N)nc(N[C@H](CO)Cc5ccccc5)nc43)[C@H](O)[C@@H]2O)c1 | 182 nM | 62 nM | > 10000 nM | > 10000 nM | 776 nM | – | > 50% | – | – |
| CC(C)n1cnc(CCNc2nc(NCC(c3ccccc3)c3ccccc3)c3ncn([C@@H]4C[C@H](NC(=O)C5CC5)[C@@H](O)[C@H]4O)c3n2)c1 | 16 nM | 60 nM | > 10000 nM | – | 357 nM | – | > 50% | – | – |
| CC(C)n1cnc(CCNc2nc(NCC(c3ccccc3)c3ccccc3)c3ncn([C@@H]4C[C@H](NC(=O)C(C)(C)C)[C@@H](O)[C@H]4O)c3n2)c1 | 382 nM | 542 nM | – | – | – | – | – | – | – |
| Nc1nc(N[C@H](CO)Cc2ccccc2)nc2c1ncn2[C@@H]1C[C@H](n2ccccc2=O)[C@@H](O)[C@H]1O | 5490 nM | – | – | – | – | – | – | – | – |
| CCC(=O)N[C@H]1C[C@@H](n2cnc3c(NCC(c4ccccc4)c4ccccc4)nc(NCCc4cn(C)cn4)nc32)[C@H](O)[C@@H]1O | 4.6 nM | 4.7 nM | > 10000 nM | – | 42 nM | – | – | – | – |
| CC(C)n1cnc(CCNc2nc(NCC(c3ccccc3)c3ccccc3)c3ncn([C@@H]4C[C@H](NC(=O)Cc5ccccc5)[C@@H](O)[C@H]4O)c3n2)c1 | 1670 nM | – | – | – | – | – | – | – | – |
| CCCCC#Cc1nc(N)c2ncn([C@@H]3C[C@H](NC(=O)CC)[C@@H](O)[C@H]3O)c2n1 | 18 nM | 12 nM | > 10000 nM | > 10000 nM | 105 nM | – | – | – | – |
| Nc1nc(N[C@H](CO)Cc2ccccc2)nc2c1ncn2[C@@H]1C[C@H](n2cc(-c3ccccc3)cn2)[C@@H](O)[C@H]1O | > 10000 nM | – | – | – | – | – | – | – | – |
| CC(C)C(=O)N[C@H]1C[C@@H](n2cnc3c(NCC(c4ccccc4)c4ccccc4)nc(NCCc4cn(C(C)C)cn4)nc32)[C@H](O)[C@@H]1O | 27 nM | 67 nM | – | – | – | – | – | – | – |
| CCC(=O)N[C@H]1C[C@@H](n2cnc3c(NC(CC)CC)nc(NCCc4cn(CC)cn4)nc32)[C@H](O)[C@@H]1O | 5.4 nM | 2.7 nM | > 10000 nM | > 10000 nM | 1640 nM | 4.7 nM | – | 255 nM | – |
| CC(C)n1cnc(CCNc2nc(NCC(c3ccccc3)c3ccccc3)c3ncn([C@@H]4C[C@H](NC(=O)CCc5ccccc5)[C@@H](O)[C@H]4O)c3n2)c1 | 5470 nM | – | – | – | – | – | – | – | – |
| CCC(=O)N[C@H]1C[C@@H](n2cnc3c(NCC(c4ccccc4)c4ccccc4)nc(NCCc4c[nH]cn4)nc32)[C@H](O)[C@@H]1O | 5.2 nM | 5.9 nM | > 10000 nM | > 10000 nM | 139 nM | – | – | – | – |
| CCC(=O)N[C@H]1C[C@@H](n2cnc3c(NCC(c4ccccc4)c4ccccc4)nc(NCCc4cn(CC)cn4)nc32)[C@H](O)[C@@H]1O | 5.2 nM | 5 nM | – | – | 44 nM | – | – | – | – |
| CC(C)n1cnc(CCNc2nc(NCC(c3ccccc3)c3ccccc3)c3ncn([C@@H]4C[C@H](NC(=O)C5CCC5)[C@@H](O)[C@H]4O)c3n2)c1 | 7.9 nM | 40 nM | > 10000 nM | – | 480 nM | – | – | – | 48% |
| CCNC(=O)[C@H]1O[C@@H](n2cnc3c(N)ncnc32)[C@H](O)[C@@H]1O [NECA] | – | – | – | – | – | 40 nM | – | 187 nM | – |

— ChEMBL document CHEMBL1158518, “Synthesis and evaluation of two series of 4'-aza-carbocyclic nucleosides as adenosine A2A receptor agonists” (Bioorg Med Chem Lett, 2010)
